The source of these data is patent US7435837B2, “Dihydrobenzofuranyl alkanamine derivatives and methods for using same” (Wyeth, priority 2003, dated 2008).

Molecules are shown by their SMILES.

Assay [1] deals with T1, human 5-hydroxytryptamine-2C (h5-HT2C) receptor (Homo sapiens, UniProt P28335).
T1 construct: expressed in transfected cells; host or cells: CHO (Chinese Hamster Ovary) cells; membranes
T1 sequence (P28335 33-458): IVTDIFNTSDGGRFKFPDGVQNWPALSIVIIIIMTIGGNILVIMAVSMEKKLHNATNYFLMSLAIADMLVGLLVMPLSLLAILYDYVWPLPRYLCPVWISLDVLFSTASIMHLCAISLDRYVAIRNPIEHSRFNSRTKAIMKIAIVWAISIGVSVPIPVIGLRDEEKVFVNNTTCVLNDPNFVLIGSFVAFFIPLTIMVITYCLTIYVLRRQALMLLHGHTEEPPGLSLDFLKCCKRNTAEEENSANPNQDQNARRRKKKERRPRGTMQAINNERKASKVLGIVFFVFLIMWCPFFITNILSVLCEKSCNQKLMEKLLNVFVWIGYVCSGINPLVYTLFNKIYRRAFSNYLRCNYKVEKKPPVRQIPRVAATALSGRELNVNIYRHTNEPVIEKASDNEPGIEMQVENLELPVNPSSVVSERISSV
Description: [125I]DOI binding to membranes of CHO cells expressing the human 5-HT2C receptor. The settings on record: [125I]DOI radioligand, CHO cell membranes, room temperature 60 min; read-out: 5-HT2C Affinity Ki.

The target of another assay is T2, human 5-HT2C receptor (Homo sapiens, UniProt P28335).
T2 sequence (P28335 33-458): T1 sequence (P28335 33-458)
Description: 5-HT2C receptor-stimulated calcium mobilization (FLIPR) in CHO cells.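 As to all read-outs here: Fluo-3-AM fluorescence read on FLIPR every 1 s, agonist added after 10 baseline reads, response taken as peak minus lowest raw fluorescence count.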 In kind it is cell-based. The following applies: for Emax: CHO, read-out: 5-HT2C Function Emax (%); for Emax / 5-HT2C Function Emax (%): percentage of the response observed with a maximally effective concentration of 5-HT; for EC50: calcium mobilization, CHO cells stably expressing human 5-HT2C, read-out: 5-HT2C Function EC50.

Turning to `CC(C)(C)c1cc(Cl)cc2c1OC(CN)C2` (racemic) [Example 27, (±)-1-(7-tert-butyl-5-chloro-2,3-dihydro-1-benzofuran-2-yl)methanamine], the Ki (in general, a measure of affinity in units of concentration, obtained from inhibition or displacement) in assay [1] is 39 nM. Moreover, on human 5-HT2C receptor, the maximal response (Emax) (commonly the size of the effect at its maximum, as opposed to the concentration needed) is 80% and the EC50 (in general, the concentration needed to bring the measured effect to its halfway point) worked out at 2020 nM.

For `NCC1Cc2cccc(Cc3ccccc3)c2O1` (single isomer, unassigned; (-)) [Example 17, (−)-1-(7-benzyl-2,3-dihydro-1-benzofuran-2-yl)methanamine], the Ki in assay [1] amounted to 66 nM. In addition, at human 5-HT2C receptor, the EC50 came out at 100 nM and the “5-HT2C Function Emax (%)” value is reported as 70%.

As for `CNCC1Cc2cc(F)cc(-c3ccccc3Cl)c2O1` (racemic) [Example 439, (±)-{[5-fluoro-7-(2-chlorophenyl)-2,3-dihydro-1-benzofuran-2-yl]methyl}methylamine], in assay [1], the Ki is 0.45 nM. Besides, at human 5-HT2C receptor, the maximal effect (Emax) was determined as 90% and the 50% effective concentration (EC50) was found to be 6 nM.

Consider `NCC1Cc2cccc(-c3ccc(C(F)(F)F)cc3)c2O1` (single isomer, unassigned; (+)) [Example 137, (+)-1-{7-[4-(trifluoromethyl)phenyl]-2,3-dihydro-1-benzofuran-2-yl}methanamine], for which the inhibition constant (Ki) in assay [1] stood at 1.2 nM. Besides, on human 5-HT2C receptor, the EC50 was 473 nM and the “5-HT2C Function Emax (%)” value was 90%.

As for `CNCC1Cc2cccc(-c3ccccc3C)c2O1` (racemic) [Example 406, (±)-[(N-methyl-1-[7-(2-methylphenyl)-2,3-dihydro-1-benzofuran-2-yl]methanamine], the inhibition constant (Ki) in assay [1] is 0.51 nM. Moreover, on human 5-HT2C receptor, the Emax was 100% and the 50% effective concentration (EC50) was 9 nM.

As to `NCC1Cc2cc(Cl)cc(-c3cccc(F)c3F)c2O1` (single isomer, unassigned) [Example 246, (±)-{[5-chloro-7-(2,3-difluorophenyl)-2,3-dihydro-1-benzofuran-2-yl]methyl}amine], the Ki in assay [1] was 23 nM. Besides, the EC50 on human 5-HT2C receptor was 1490 nM.

As for `Cc1cc2c(c(-c3cccc(Cl)c3)c1)OC(CN)C2` (racemic) [Example 288, (±)-{[7-(3-chlorophenyl)-5-methyl-2,3-dihydro-1-benzofuran-2-yl]methyl}amine], the Ki in assay [1] is 7.1 nM. Also, at human 5-HT2C receptor, the maximal response (Emax) stood at 100% and the concentration for a half-maximal effect (EC50) amounted to 38 nM.

For the molecule `NCC1Cc2cccc(-c3ccccc3Cl)c2O1` (single isomer, unassigned; (+)) [Example 130, (+)-1-[7-(2-chlorophenyl)-2,3-dihydro-1-benzofuran-2-yl]methanamine], the Ki in assay [1] came to 4.8 nM. On human 5-HT2C receptor, the EC50 was found to be 54 nM and the “5-HT2C Function Emax (%)” value is 80%.

Regarding `Cc1ccccc1-c1cc(Cl)cc2c1OC(CN)C2` (racemic) [Example 95, (±)-1-[5-chloro-7-(2-methylphenyl)-2,3-dihydro-1-benzofuran-2-yl]methanamine], the inhibition constant Ki in assay [1] came out at 1 nM. On human 5-HT2C receptor, the Emax is 100% and the EC50 amounted to 65 nM.

As to `CNCC1Cc2cc(F)cc(-c3cc(Cl)ccc3OC)c2O1` (racemic) [Example 458, (±)-{[7-(5-chloro-2-methoxyphenyl)-5-fluoro-2,3-dihydro-1-benzofuran-2-yl]methyl}methylamine], in assay [1], the Ki amounted to 17 nM. For the same molecule, at human 5-HT2C receptor, the Emax came to 80% and the concentration for a half-maximal effect (EC50) turned out to be 212 nM.

On to `CNCC1Cc2cccc(-c3cccc(OC)c3)c2O1` (racemic) [Example 417, (±)-[(N-methyl-1-[7-(3-methoxyphenyl)-2,3-dihydro-1-benzofuran-2-yl]methanamine], for which the Ki in assay [1] stood at 3.7 nM. Further, at human 5-HT2C receptor, the maximal effect (Emax) was determined as 60% and the concentration giving a half-maximal response (EC50) amounted to 183 nM.

Take `CNCC1Cc2cc(OC)cc(-c3cc(C)ccc3C)c2O1` (racemic) [Example 500, (±)-{[7-(2,5-dimethylphenyl)-5-methoxy-2,3-dihydro-1-benzofuran-2-yl]methyl}methylamine]: the Ki in assay [1] worked out at 86 nM. Besides, at human 5-HT2C receptor, the Emax came out at 80% and the concentration giving a half-maximal response (EC50) was determined as 256 nM.

Consider `COc1ccc(OC)c(-c2cc(F)cc3c2OC(CN)C3)c1` (racemic) [Example 223, (±)-{[7-(2,5-dimethoxyphenyl)-5-fluoro-2,3-dihydro-1-benzofuran-2-yl]methyl}amine], for which the inhibitory constant (Ki) in assay [1] is 10 nM. Besides, at human 5-HT2C receptor, the Emax came to 80% and the EC50 was found to be 30 nM.

For `Cc1ccccc1-c1cc(F)cc2c1OC(CN)C2` (racemic) [Example 104, (±)-1-[5-fluoro-7-(2-methylphenyl)-2,3-dihydro-1-benzofuran-2-yl]methanamine], the Ki in assay [1] came out at 1 nM. In addition, at human 5-HT2C receptor, the Emax was determined as 100% and the EC50 is 241 nM.

On to `NCC1Cc2cc(F)cc(-c3c(Cl)cccc3Cl)c2O1` (racemic) [Example 230, (±)-{[7-(2,6-dichlorophenyl)-5-fluoro-2,3-dihydro-1-benzofuran-2-yl]methyl}amine], for which, in assay [1], the Ki turned out to be 0.6 nM. At human 5-HT2C receptor, the Emax came out at 90% and the half-maximal effective concentration (EC50) was 48 nM.

As to `COc1cc2c(c(-c3cc(Cl)ccc3Cl)c1)OC(CN)C2` (racemic) [Example 367, (±)-{[7-(2,5-dichlorophenyl)-5-methoxy-2,3-dihydro-1-benzofuran-2-yl]methyl}amine], the inhibition constant Ki in assay [1] was determined as 0.21 nM. Further, on human 5-HT2C receptor, the Emax came out at 100% and the 50% effective concentration (EC50) amounted to 3 nM.

As for `CNCC1Cc2cc(F)cc(-c3ccccc3C)c2O1` (single isomer, unassigned; (-)) [Example 441, (−)-{[5-fluoro-7-(2-methylphenyl)-2,3-dihydro-1-benzofuran-2-yl]methyl}methylamine], in assay [1], the Ki is 10 nM. On human 5-HT2C receptor, the maximum response (Emax) stood at 70% and the EC50 came out at 531 nM.

Turning to `NCC1Cc2cccc(-c3cccc(F)c3)c2O1` (single isomer, unassigned; (+)) [Example 131, (+)-1-[7-(3-fluorophenyl)-2,3-dihydro-1-benzofuran-2-yl]methanamine], in assay [1], the inhibition constant (Ki) is 1.5 nM. On human 5-HT2C receptor, the EC50 worked out at 34 nM and the “5-HT2C Function Emax (%)” value stood at 90%.

As to `CNCC1Cc2cc(C)cc(-c3ccc(Cl)cc3)c2O1` (racemic) [Example 481, (±)-{[7-(4-chlorophenyl)-5-methyl-2,3-dihydro-1-benzofuran-2-yl]methyl}methylamine], in assay [1], the Ki was 1.5 nM. In addition, on human 5-HT2C receptor, the Emax amounted to 80% and the EC50 came out at 75 nM.

Turning to `Cc1ccc(-c2cccc3c2OC(CN)C3)cc1` (single isomer, unassigned; (+)) [Example 71, (+)-1-[7-(4-methylphenyl)-2,3-dihydro-1-benzofuran-2-yl]methanamine], the Ki in assay [1] is 1 nM. On human 5-HT2C receptor, the Emax stood at 100% and the EC50 is 1.4 nM.

On to `COc1cccc(-c2cc(C(F)(F)F)cc3c2OC(CN)C3)c1OC` (racemic) [Example 331, (±)-{[7-(2,3-dimethoxyphenyl)-5-(trifluoromethyl)-2,3-dihydro-1-benzofuran-2-yl]methyl}amine], for which the inhibition constant (Ki) in assay [1] is 38 nM. Also, on human 5-HT2C receptor, the Emax came to 80% and the EC50 is 271 nM.

Turning to `CNCC1Cc2cc(C)cc(-c3cc(Cl)ccc3Cl)c2O1` (single isomer, unassigned; (-)) [Example 488, (−)-{[7-(2,5-dichlorophenyl)-5-methyl-2,3-dihydro-1-benzofuran-2-yl]methyl}methylamine], the inhibition constant Ki in assay [1] is 0.34 nM. Also, on human 5-HT2C receptor, the half-maximal effective concentration (EC50) stood at 132 nM and the “5-HT2C Function Emax (%)” value is 90%.
